The results in this text go back to US20070021456A1, “Aminobenzimidazole derivatives” (MERCK PATENT GMBH, priority 2003, published 2007).

Molecules are shown by their SMILES.

The target of this assay is Tie-2 kinase (Homo sapiens, UniProt Q02763). Description: TIE-2 kinase flashplate assay (phosphorylation of poly(Glu, Tyr) with 33P-ATP). It counts as biochemical. Conditions: read-out: Inhibition of TIE-2 IC50. The method, then: The assay determines the inhibiting activity of the substances to be tested in the phosphorylation of the substrate poly(Glu, Tyr) by Tie-2 kinase in the presence of radioactive ^33P-ATP. The phosphorylated substrate binds to the surface of a “flashplate” microtitre plate during the incubation time. After removal of the reaction mixture, the microtitre plate is washed a number of times and the radioactivity on its surface is subsequently measured. An inhibiting effect of the substances to be measured results in lower radioactivity compared with an undisturbed enzymatic reaction.
Chain of Tie-2 kinase (Q02763 23-1124): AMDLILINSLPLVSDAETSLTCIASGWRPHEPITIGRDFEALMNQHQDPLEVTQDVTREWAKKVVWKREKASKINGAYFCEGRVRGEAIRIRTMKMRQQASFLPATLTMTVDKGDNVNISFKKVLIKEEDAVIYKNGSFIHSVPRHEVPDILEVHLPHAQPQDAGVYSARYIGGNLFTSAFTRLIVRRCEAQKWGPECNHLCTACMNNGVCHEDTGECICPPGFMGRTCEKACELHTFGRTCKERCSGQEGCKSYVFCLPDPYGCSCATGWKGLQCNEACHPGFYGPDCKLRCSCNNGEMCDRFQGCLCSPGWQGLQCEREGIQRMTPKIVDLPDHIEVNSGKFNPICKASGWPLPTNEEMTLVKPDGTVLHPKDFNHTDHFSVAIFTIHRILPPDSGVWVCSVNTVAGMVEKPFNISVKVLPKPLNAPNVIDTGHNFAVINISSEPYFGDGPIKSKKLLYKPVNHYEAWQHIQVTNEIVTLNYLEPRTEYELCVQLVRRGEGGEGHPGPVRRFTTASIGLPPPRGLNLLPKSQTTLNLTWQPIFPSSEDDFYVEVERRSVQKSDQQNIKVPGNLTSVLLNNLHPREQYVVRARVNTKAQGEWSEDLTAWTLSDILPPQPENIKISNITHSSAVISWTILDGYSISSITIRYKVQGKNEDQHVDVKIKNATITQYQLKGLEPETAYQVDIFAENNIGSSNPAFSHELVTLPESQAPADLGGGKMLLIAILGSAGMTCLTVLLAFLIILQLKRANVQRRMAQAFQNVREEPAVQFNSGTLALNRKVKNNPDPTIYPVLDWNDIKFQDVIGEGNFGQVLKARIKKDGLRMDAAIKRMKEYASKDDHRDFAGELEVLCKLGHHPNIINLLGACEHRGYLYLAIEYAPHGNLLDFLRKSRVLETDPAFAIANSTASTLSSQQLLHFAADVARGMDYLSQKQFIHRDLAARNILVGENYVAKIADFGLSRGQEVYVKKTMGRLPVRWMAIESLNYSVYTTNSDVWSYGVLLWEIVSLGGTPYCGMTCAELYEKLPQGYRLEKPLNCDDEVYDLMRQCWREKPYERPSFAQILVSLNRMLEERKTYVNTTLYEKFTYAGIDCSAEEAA
By IC50 is commonly meant the concentration that inhibits the measured activity by half. Consider `FC(F)(F)c1cc(Br)c2nc(Nc3ccc(Oc4ccc5nsnc5c4)cc3)[nH]c2c1` [A1, [4-(benzo-1,2,5-thiadiazol-5-yloxy)phenyl](4-bromo-6-trifluoromethyl-1H-benzimidazol-2-yl)amine], for which the IC50 is 220 nM.

As to `FC(F)(F)c1cc(Cl)c2nc(Nc3ccc(Oc4ccc5nsnc5c4)cc3)[nH]c2c1` [No. 2], the 50% inhibitory concentration (IC50) came to 250 nM.

`Cc1cc(Oc2ccc(Nc3nc4c(Br)cc(C(F)(F)F)cc4[nH]3)cc2)c(C)c2sc(N)nc12` [No. 31]: the IC50 came out at 390 nM.

For the molecule `Nc1nc2ccc(Oc3ccc(Nc4nc5cc(C(F)(F)F)cc(Cl)c5[nH]4)cc3)cc2s1` [No. 38], the concentration for half-maximal inhibition (IC50) amounted to 320 nM.
